Data set [1] in a line: Physical stability of peptide analogues (Thioflavin T fibrillation). In kind it is physicochemical. To be noted: maximum ThT signal normalized between hAMY maximum and buffer background; 40° C., shaking, four days; pH 7 per table title. Put shortly: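 Samples are stressed at 40 °C for four days, being shaken at 700 rpm before each 10-min fluorescence reading of 4 μM Thioflavin T. Buffers were pH 4 acetate or pH 7 phosphate. Reported values are smoothed maximum ThT signals as a percentage of the hAMY-to-background range.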

The target in another data set is hAM1 receptor (Homo sapiens, UniProt O60895+Q16602). Briefly: cAMP assay for in vitro receptor activation, hAM1-R. To be noted: cAMP assay, hAM1 receptor; read-out: hAM1R EC50. In kind it is cell-based. An outline of the steps:
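Monoclonal stable hAM1-overexpressing cells, thawed from frozen stock; 8000 cells/well in DPBS + 0.05% casein + 0.5 mM IBMX; read-out cAMP.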

Another data set addresses T1, hAMY3 receptor (Homo sapiens, UniProt O60896+P30988).
T1 sequence (P30988 25-474): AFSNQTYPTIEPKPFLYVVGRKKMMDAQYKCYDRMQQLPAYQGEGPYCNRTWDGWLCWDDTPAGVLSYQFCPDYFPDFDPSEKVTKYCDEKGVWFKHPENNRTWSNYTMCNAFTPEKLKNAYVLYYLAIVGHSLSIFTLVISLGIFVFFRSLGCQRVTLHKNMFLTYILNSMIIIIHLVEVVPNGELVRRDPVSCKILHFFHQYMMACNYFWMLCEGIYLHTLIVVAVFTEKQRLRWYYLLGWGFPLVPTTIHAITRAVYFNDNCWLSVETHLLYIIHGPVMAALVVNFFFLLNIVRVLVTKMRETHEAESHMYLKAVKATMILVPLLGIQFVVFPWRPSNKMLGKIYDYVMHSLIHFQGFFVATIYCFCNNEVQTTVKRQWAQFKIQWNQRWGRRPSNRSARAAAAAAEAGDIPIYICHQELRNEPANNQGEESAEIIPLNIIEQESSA
T1 sequence (O60896 24-148 partner): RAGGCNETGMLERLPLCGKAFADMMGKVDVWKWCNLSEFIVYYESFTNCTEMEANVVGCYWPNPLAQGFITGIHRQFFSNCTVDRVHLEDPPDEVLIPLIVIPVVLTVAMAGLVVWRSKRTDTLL
Put plainly: cAMP assay for in vitro receptor activation, hAMY3-R. To be noted: cAMP assay, hAMY3 receptor; read-out: hAMY3R EC50. In kind it is cell-based. Put shortly: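 Read-out is TR-FRET cAMP signal, recorded one hour after reagent addition, following 30 min room-temperature stimulation of stable hAMY3 cells with graded compound doses in casein/IBMX (0.5 mM) buffer.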
In general terms: cAMP levels reflect the balance of adenylyl cyclase and phosphodiesterase activity.

Bridge positions count the residues as written; N and C are the ends. Square brackets hold non-standard residues; d marks the D form. Peptide text beside a SMILES is read from it. Hyp = O=C(O)[C@@H]1C[C@@H](O)CN1; Cit = NC(=O)NCCC[C@H](N)C(=O)O A value given as a limit tells only on which side of the number the result lay.

hAM1 receptor, sequence (Q16602 23-461): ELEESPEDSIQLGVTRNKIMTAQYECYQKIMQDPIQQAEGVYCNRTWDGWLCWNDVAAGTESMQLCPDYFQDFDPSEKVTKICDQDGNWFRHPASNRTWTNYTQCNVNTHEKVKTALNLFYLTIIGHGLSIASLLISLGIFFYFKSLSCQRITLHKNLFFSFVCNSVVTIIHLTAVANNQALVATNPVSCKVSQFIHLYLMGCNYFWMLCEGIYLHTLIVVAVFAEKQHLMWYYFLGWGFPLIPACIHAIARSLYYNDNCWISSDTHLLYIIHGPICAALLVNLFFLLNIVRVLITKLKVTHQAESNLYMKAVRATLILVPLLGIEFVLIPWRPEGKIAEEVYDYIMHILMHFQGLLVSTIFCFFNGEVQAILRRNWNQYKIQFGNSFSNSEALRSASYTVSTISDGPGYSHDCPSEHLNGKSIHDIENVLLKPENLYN
hAM1 receptor, sequence (O60895 43-175 partner): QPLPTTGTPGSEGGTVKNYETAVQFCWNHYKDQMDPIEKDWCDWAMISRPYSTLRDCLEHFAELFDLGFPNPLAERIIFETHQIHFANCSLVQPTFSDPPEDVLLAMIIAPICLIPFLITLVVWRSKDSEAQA

Broadly, the EC50 is the concentration needed to bring the measured effect to its halfway point. On to `CC[C@H](C)[C@H](NC(=O)[C@H](CCC(N)=O)NC(=O)[C@H](Cc1c[nH]cn1)NC(=O)[C@H](C)NC(=O)[C@H](CC(C)C)NC(=O)[C@H](Cc1c[nH]c2ccccc12)NC(=O)[C@H](CCC(N)=O)NC(=O)[C@@H](NC(=O)[C@@H](NC(=O)[C@@H]1CSSC[C@H](NC(=O)CN)C(=O)N[C@@H](CCCNC(=N)N)C(=O)N[C@@H]([C@@H](C)O)C(=O)NCC(=O)N[C@@H]([C@@H](C)O)C(=O)N1)[C@@H](C)O)C(C)C)C(=O)N[C@@H](Cc1ccc(O)cc1)C(=O)N[C@@H](CCC(N)=O)C(=O)N[C@@H](Cc1ccccc1)C(=O)N[C@H](C(=O)N[C@@H](CC(=O)O)C(=O)N[C@@H](CCCCN)C(=O)N[C@@H](CC(=O)O)C(=O)N[C@@H](CCCCN)C(=O)N[C@@H](CC(=O)O)C(=O)N[C@@H](CC(N)=O)C(=O)N[C@H](C(=O)N[C@@H](C)C(=O)N1CCC[C@H]1C(=O)N[C@@H](CCCNC(=N)N)C(=O)N[C@H](C(=O)N[C@@H](CCCCN)C(=O)N[C@H](C(=O)NCC(=O)N1CCC[C@H]1C(=O)N[C@@H](CCC(N)=O)C(=O)NCC(=O)N[C@@H](Cc1ccc(O)cc1)C(N)=O)C(C)C)[C@@H](C)O)C(C)C)[C@@H](C)O` [compound 354] (H-GCRTGTCTVQWLAHQIYQFTDKDKDNVAPRTKVGPQGY-NH2; disulfide 2-7; N-terminus assumed), for which the “Max ThT signal (%)” value in data set [1] was found to be 17.400%. In addition, the 50% effective concentration (EC50) was over 5000 nM on hAM1 receptor and 0.091 nM on hAMY3 receptor.
Regarding `CC[C@H](C)[C@H](NC(=O)[C@H](CCC(N)=O)NC(=O)[C@H](Cc1c[nH]cn1)NC(=O)[C@H](C)NC(=O)[C@H](CC(C)C)NC(=O)[C@H](CCCNC(N)=O)NC(=O)[C@H](CCC(N)=O)NC(=O)[C@@H](NC(=O)[C@@H](NC(=O)[C@@H]1CSSC[C@H](NC(=O)[C@@H](N)CCCCN)C(=O)N[C@@H](CC(N)=O)C(=O)N[C@@H]([C@@H](C)O)C(=O)N[C@@H](C)C(=O)N[C@@H]([C@@H](C)O)C(=O)N1)[C@@H](C)O)C(C)C)C(=O)N[C@@H](Cc1ccc(O)cc1)C(=O)N[C@@H](CCC(N)=O)C(=O)N[C@@H](Cc1ccccc1)C(=O)N[C@H](C(=O)N[C@@H](CC(=O)O)C(=O)N[C@@H](CCCCN)C(=O)N[C@@H](CC(=O)O)C(=O)N[C@@H](CCCCN)C(=O)N[C@@H](CC(=O)O)C(=O)N[C@@H](CC(N)=O)C(=O)N[C@H](C(=O)N[C@@H](C)C(=O)N1CCC[C@H]1C(=O)N[C@H](C(=O)N[C@@H](CC(N)=O)C(=O)N[C@H](C(=O)NCC(=O)N[C@@H](CO)C(=O)N[C@@H](CC(N)=O)C(=O)NCC(=O)N1C[C@H](O)C[C@H]1C(N)=O)C(C)C)[C@@H](C)O)C(C)C)[C@@H](C)O` [compound 255] (H-KCNTATCTVQ[Cit]LAHQIYQFTDKDKDNVAPTNVGSNG[Hyp]-NH2; disulfide 2-7; N-terminus assumed), in data set [1], the “Max ThT signal (%)” value amounted to 25.000%. In addition, the EC50 at hAM1 receptor is over 5000 nM; on hAMY3 receptor, 0.007 nM.
The matching figures for `CC[C@H](C)[C@H](NC(=O)[C@H](CCC(N)=O)NC(=O)[C@H](Cc1c[nH]cn1)NC(=O)[C@H](C)NC(=O)[C@H](CC(C)C)NC(=O)[C@H](CCCNC(=N)N)NC(=O)[C@H](CCC(N)=O)NC(=O)[C@@H](NC(=O)[C@@H](NC(=O)[C@@H]1CSSC[C@H](NC(=O)[C@@H](N)CCCCN)C(=O)N[C@@H](CC(N)=O)C(=O)N[C@@H]([C@@H](C)O)C(=O)N[C@@H](C)C(=O)N[C@@H]([C@@H](C)O)C(=O)N1)[C@@H](C)O)C(C)C)C(=O)N[C@@H](Cc1ccc(O)cc1)C(=O)N[C@@H](Cc1ccccc1)C(=O)N[C@H](C(=O)N[C@@H](CC(=O)O)C(=O)N[C@@H](CCCCN)C(=O)N[C@@H](CC(=O)O)C(=O)N[C@@H](CCCCN)C(=O)N[C@@H](CC(=O)O)C(=O)N[C@@H](CC(N)=O)C(=O)N[C@H](C(=O)N[C@@H](C)C(=O)N1CCC[C@H]1C(=O)N1CCC[C@H]1C(=O)N[C@H](C(=O)N[C@@H](CC(N)=O)C(=O)N[C@H](C(=O)NCC(=O)N[C@@H](CO)C(=O)N[C@@H](CC(N)=O)C(=O)NCC(=O)N1C[C@H](O)C[C@H]1C(N)=O)C(C)C)[C@@H](C)O)C(C)C)[C@@H](C)O` [compound 181] (H-KCNTATCTVQRLAHQIYFTDKDKDNVAPPTNVGSNG[Hyp]-NH2; disulfide 2-7; N-terminus assumed): 8.800%, over 5000 nM and 0.082 nM.

Values taken from patent US12139520B2 (priority 2020, dated 2024).
